{
  "source": "paper PMC11882969",
  "about": "(Nature Communications, 2025)",
  "key": {"CB1 (rCB1) [1]": {"molecular_target": "T1, CB1 (rCB1) (Rattus norvegicus, UniProt P20272)", "T1 sequence (P20272 whole entry)": "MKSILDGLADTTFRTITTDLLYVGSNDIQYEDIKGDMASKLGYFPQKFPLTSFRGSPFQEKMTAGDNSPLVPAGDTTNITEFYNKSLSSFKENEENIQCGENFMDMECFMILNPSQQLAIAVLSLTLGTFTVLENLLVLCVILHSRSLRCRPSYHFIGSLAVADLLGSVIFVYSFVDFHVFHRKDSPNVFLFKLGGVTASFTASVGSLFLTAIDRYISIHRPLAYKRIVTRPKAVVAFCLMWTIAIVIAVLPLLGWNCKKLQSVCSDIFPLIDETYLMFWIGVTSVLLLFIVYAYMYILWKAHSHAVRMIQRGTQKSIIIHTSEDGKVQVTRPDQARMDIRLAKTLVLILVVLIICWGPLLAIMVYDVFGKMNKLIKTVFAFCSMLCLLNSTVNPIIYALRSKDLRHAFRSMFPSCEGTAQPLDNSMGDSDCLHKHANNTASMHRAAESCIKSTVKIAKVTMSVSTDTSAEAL", "assay": "Radioligand competition binding, [3H]-CP-55,940, rat brain membranes"}, "CB1 (rCB1) [2]": {"molecular_target": "T1, CB1 (rCB1)", "assay": "Single-point radioligand displacement screen", "type": "binding", "conditions": "10 µM, 1 µM or 300 nM by cell colour (not visible)"}, "hCB1": {"molecular_target": "hCB1 (Homo sapiens, UniProt P21554)", "sequence (P21554 whole entry)": "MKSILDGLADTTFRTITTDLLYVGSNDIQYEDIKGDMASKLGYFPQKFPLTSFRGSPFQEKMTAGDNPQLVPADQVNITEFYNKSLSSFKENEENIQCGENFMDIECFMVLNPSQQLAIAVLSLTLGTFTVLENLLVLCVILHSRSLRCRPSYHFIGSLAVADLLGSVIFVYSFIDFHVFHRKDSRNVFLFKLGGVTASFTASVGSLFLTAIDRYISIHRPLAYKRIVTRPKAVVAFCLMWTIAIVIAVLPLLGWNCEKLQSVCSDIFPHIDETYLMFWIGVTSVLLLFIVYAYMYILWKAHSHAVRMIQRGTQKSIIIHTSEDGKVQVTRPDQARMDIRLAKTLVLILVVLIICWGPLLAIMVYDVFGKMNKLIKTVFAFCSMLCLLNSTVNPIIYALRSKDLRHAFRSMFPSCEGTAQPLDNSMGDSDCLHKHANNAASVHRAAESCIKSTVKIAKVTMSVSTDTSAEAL", "assay": "bioSensAll ebBRET signaling profiling, hCB1", "type": "cell-based", "design": "host or cells: HEK293SL cells, transient PEI transfection", "conditions": "for Gi1 hCB1 response: Gi1 biosensor; for Gi1 hCB1 / GoB hCB1: single replicate values, FigS6a; for EC50: read-out: EC50 [95% CI]; for Emax: normalized to CP-55,940"}},
  "note": "“And” between values parts separate entries of the source, which are not always exact repeats. Equal entries are not always repeated. Where two headings read alike, the source gives them in different places.",
  "data": [
    {"smiles": "Cc1cc(C(=O)NC(c2ccccc2)c2ccco2)nn1-c1cccc(C#N)c1", "note": "(stereo not drawn) [‘12565]", "values": [
      {"measurement": "pKi [95% CI]", "setting": "CB1 (rCB1) [1]; rCB1", "result": "6.5 [6.3 – 6.7]"},
      {"measurement": "Ki", "setting": "CB1 (rCB1) [1]; read-out: Ki [95% CI], rCB1, [3H]-CP-55,940", "result": 301, "unit": "nM"},
      {"measurement": "% 1H-CP-55,940 displacement (mean) from single point screen", "setting": "CB1 (rCB1) [2]", "result": 61.12, "unit": "%"},
      {"measurement": "Gi1 hCB1 response", "setting": "hCB1; Log [Compound] (M) -4.22186", "result": 51.3091},
      {"measurement": "Gi1 hCB1 response", "setting": "hCB1; Log [Compound] (M) -4.63927", "result": 50.5034},
      {"measurement": "Gi1 hCB1 response", "setting": "hCB1; Log [Compound] (M) -5.05788", "result": 44.5052},
      {"measurement": "Gi1 hCB1 response", "setting": "hCB1; Log [Compound] (M) -5.47381", "result": 43.9457},
      {"measurement": "Gi1 hCB1 response", "setting": "hCB1; Log [Compound] (M) -5.89285", "result": 42.849},
      {"measurement": "Gi1 hCB1 response", "setting": "hCB1; Log [Compound] (M) -6.31878", "result": 33.2921},
      {"measurement": "Gi1 hCB1 response", "setting": "hCB1; Log [Compound] (M) -6.72585", "result": 46.4524},
      {"measurement": "Gi1 hCB1 response", "setting": "hCB1; Log [Compound] (M) -7.14267", "result": 19.6618},
      {"measurement": "Gi1 hCB1 response", "setting": "hCB1; Log [Compound] (M) -7.55284", "result": 13.0593},
      {"measurement": "Gi1 hCB1 response", "setting": "hCB1; Log [Compound] (M) -8", "result": 11.2688},
      {"measurement": "Gi1 hCB1 response", "setting": "hCB1; Log [Compound] (M) -8.22186", "result": -3.794},
      {"measurement": "Gi1 hCB1 response", "setting": "hCB1; Log [Compound] (M) -8.39794", "result": -8.2031},
      {"measurement": "Gi1 hCB1 response", "setting": "hCB1; Log [Compound] (M) -8.68787", "result": -4.197},
      {"measurement": "Gi1 hCB1 response", "setting": "hCB1; Log [Compound] (M) -9.15521", "result": -12.5675},
      {"measurement": "Gi1 hCB1 response", "setting": "hCB1; Log [Compound] (M) -9.61989", "result": -10.195},
      {"measurement": "Gi1 hCB1 response", "setting": "hCB1; Log [Compound] (M) -10.0969", "result": -5.294},
      {"measurement": "Gi1 hCB1 response", "setting": "hCB1; Log [Compound] (M) -10.5529", "result": 14.9617},
      {"measurement": "Gi1 hCB1 response", "setting": "hCB1; Log [Compound] (M) -11.0177", "result": -2.317},
      {"measurement": "Gi1 hCB1 response", "setting": "hCB1; Log [Compound] (M) -11.4949", "result": 8.247},
      {"measurement": "Gi1 hCB1 response", "setting": "hCB1; Log [Compound] (M) -11.9208", "result": -0.5263},
      {"measurement": "Gi1 hCB1 response", "setting": "hCB1; Log [Compound] (M) -12.3979", "result": -10.9113},
      {"measurement": "Gi1 hCB1 response", "setting": "hCB1; Log [Compound] (M) -12.8861", "result": -6.234},
      {"measurement": "Gi1 hCB1 response", "setting": "hCB1; Log [Compound] (M) -13, individual replicate values", "result": "1.98 and -17.5585"},
      {"measurement": "Gi1 hCB1", "setting": "hCB1; Log [Compound] (M) -4.22186", "result": 25.3414},
      {"measurement": "GoB hCB1", "setting": "hCB1; Log [Compound] (M) -4.22186", "result": 15.9048},
      {"measurement": "Gi1 hCB1", "setting": "hCB1; Log [Compound] (M) -4.63927", "result": 29.288},
      {"measurement": "GoB hCB1", "setting": "hCB1; Log [Compound] (M) -4.63927", "result": 18.0268},
      {"measurement": "Gi1 hCB1", "setting": "hCB1; Log [Compound] (M) -5.05788", "result": 28.8564},
      {"measurement": "GoB hCB1", "setting": "hCB1; Log [Compound] (M) -5.05788", "result": 28.8528},
      {"measurement": "Gi1 hCB1", "setting": "hCB1; Log [Compound] (M) -5.47381", "result": 27.1451},
      {"measurement": "GoB hCB1", "setting": "hCB1; Log [Compound] (M) -5.47381", "result": 28.2953},
      {"measurement": "Gi1 hCB1", "setting": "hCB1; Log [Compound] (M) -5.89285", "result": 25.0947},
      {"measurement": "GoB hCB1", "setting": "hCB1; Log [Compound] (M) -5.89285", "result": 22.0012},
      {"measurement": "Gi1 hCB1", "setting": "hCB1; Log [Compound] (M) -6.31878", "result": 21.0402},
      {"measurement": "GoB hCB1", "setting": "hCB1; Log [Compound] (M) -6.31878", "result": 26.4251},
      {"measurement": "Gi1 hCB1", "setting": "hCB1; Log [Compound] (M) -6.72585", "result": 17.7873},
      {"measurement": "GoB hCB1", "setting": "hCB1; Log [Compound] (M) -6.72585", "result": 22.6665},
      {"measurement": "Gi1 hCB1", "setting": "hCB1; Log [Compound] (M) -7.14267", "result": 12.2681},
      {"measurement": "GoB hCB1", "setting": "hCB1; Log [Compound] (M) -7.14267", "result": 15.689},
      {"measurement": "Gi1 hCB1", "setting": "hCB1; Log [Compound] (M) -7.55284", "result": 6.888},
      {"measurement": "GoB hCB1", "setting": "hCB1; Log [Compound] (M) -7.55284", "result": 4.557},
      {"measurement": "Gi1 hCB1", "setting": "hCB1; Log [Compound] (M) -8", "result": 2.772},
      {"measurement": "GoB hCB1", "setting": "hCB1; Log [Compound] (M) -8", "result": 1.9857},
      {"measurement": "Gi1 hCB1", "setting": "hCB1; Log [Compound] (M) -8.22186", "result": 1.492},
      {"measurement": "GoB hCB1", "setting": "hCB1; Log [Compound] (M) -8.22186", "result": -4.416},
      {"measurement": "Gi1 hCB1", "setting": "hCB1; Log [Compound] (M) -8.39794", "result": 0.9061},
      {"measurement": "GoB hCB1", "setting": "hCB1; Log [Compound] (M) -8.39794", "result": -0.9096},
      {"measurement": "Gi1 hCB1", "setting": "hCB1; Log [Compound] (M) -8.68787", "result": 1.4611},
      {"measurement": "GoB hCB1", "setting": "hCB1; Log [Compound] (M) -8.68787", "result": -4.902},
      {"measurement": "Gi1 hCB1", "setting": "hCB1; Log [Compound] (M) -9.15521", "result": 0.4436},
      {"measurement": "GoB hCB1", "setting": "hCB1; Log [Compound] (M) -9.15521", "result": -2.744},
      {"measurement": "Gi1 hCB1", "setting": "hCB1; Log [Compound] (M) -9.61989", "result": -1.406},
      {"measurement": "GoB hCB1", "setting": "hCB1; Log [Compound] (M) -9.61989", "result": -3.949},
      {"measurement": "Gi1 hCB1", "setting": "hCB1; Log [Compound] (M) -10.0969", "result": 0.8444},
      {"measurement": "GoB hCB1", "setting": "hCB1; Log [Compound] (M) -10.0969", "result": -5.531},
      {"measurement": "Gi1 hCB1", "setting": "hCB1; Log [Compound] (M) -10.5529", "result": -0.3889},
      {"measurement": "GoB hCB1", "setting": "hCB1; Log [Compound] (M) -10.5529", "result": 0.1334},
      {"measurement": "Gi1 hCB1", "setting": "hCB1; Log [Compound] (M) -11.0177", "result": -1.067},
      {"measurement": "GoB hCB1", "setting": "hCB1; Log [Compound] (M) -11.0177", "result": 0.2053},
      {"measurement": "Gi1 hCB1", "setting": "hCB1; Log [Compound] (M) -11.4949", "result": 0.2894},
      {"measurement": "GoB hCB1", "setting": "hCB1; Log [Compound] (M) -11.4949", "result": -1.809},
      {"measurement": "Gi1 hCB1", "setting": "hCB1; Log [Compound] (M) -11.9208", "result": -1.221},
      {"measurement": "GoB hCB1", "setting": "hCB1; Log [Compound] (M) -11.9208", "result": -1.251},
      {"measurement": "Gi1 hCB1", "setting": "hCB1; Log [Compound] (M) -12.3979", "result": 0.4282},
      {"measurement": "GoB hCB1", "setting": "hCB1; Log [Compound] (M) -12.3979", "result": 0.1334},
      {"measurement": "Gi1 hCB1", "setting": "hCB1; Log [Compound] (M) -12.8861", "result": 1.43},
      {"measurement": "GoB hCB1", "setting": "hCB1; Log [Compound] (M) -12.8861", "result": -3.211},
      {"measurement": "Gi1 hCB1", "setting": "hCB1; Log [Compound] (M) -13", "result": "1.507 and -0.6201"},
      {"measurement": "GoB hCB1", "setting": "hCB1; Log [Compound] (M) -13", "result": "-3.409 and -2.942"},
      {"measurement": "pEC50 [95% CI]", "setting": "hCB1; hCB1 Gi1", "result": "7.0 [6.9 – 7.1]"},
      {"measurement": "pEC50 [95% CI]", "setting": "hCB1; hCB1 GoB", "result": "7.4 [7.1 – 7.6]"},
      {"measurement": "pEC50 [95% CI]", "setting": "hCB1; hCB1 Gz", "result": "7.3 [6.9 – 7.7]"},
      {"measurement": "EC50", "setting": "hCB1; hCB1 Gi1", "result": 104, "unit": "nM"},
      {"measurement": "EC50", "setting": "hCB1; hCB1 GoB", "result": 44.8, "unit": "nM"},
      {"measurement": "EC50", "setting": "hCB1; hCB1 Gz", "result": 54.6, "unit": "nM"},
      {"measurement": "Emax", "setting": "hCB1; read-out: Emax [95% CI], hCB1 Gi1", "result": 28, "unit": "%"},
      {"measurement": "Emax", "setting": "hCB1; read-out: Emax [95% CI], hCB1 GoB", "result": 25, "unit": "%"},
      {"measurement": "Emax", "setting": "hCB1; read-out: Emax [95% CI], hCB1 Gz", "result": 51, "unit": "%"}
    ]}
  ]
}
